# Measured values as given in ChEMBL document CHEMBL2380247, “Synthesis and biological evaluation of novel aliphatic amido-quaternary ammonium salts for anticancer chemotherapy: part II” (2013).
# Calls of active or inactive are those of the source. The rule behind the calls is not given here.
# Tests used:
# NUGC-3 [1] = test: Antiproliferative activity against human NUGC3 cells at 0.3 uM by SRB assay; assay type: functional
# HCT-15 [2] = test: Antiproliferative activity against human HCT15 cells at 0.1 uM by SRB assay; assay type: functional
# MDA-MB-231 [3] = test: Antiproliferative activity against human MDA-MB-231 cells at 1 uM by SRB assay; assay type: functional
# NUGC-3 [4] = test: Antiproliferative activity against human NUGC3 cells at 3 uM by SRB assay; assay type: functional
# ACHN [5] = test: Antiproliferative activity against human ACHN cells at 1 uM by SRB assay; assay type: functional
# HCT-15 [6] = test: Antiproliferative activity against human HCT15 cells by SRB assay; assay type: functional
# MDA-MB-231 [7] = test: Antiproliferative activity against human MDA-MB-231 cells at 3 uM by SRB assay; assay type: functional
# NCI-H23 [8] = test: Antiproliferative activity against human NCI-H23 cells at 10 uM by SRB assay; assay type: functional
# [9] = biological target: Rho-related GTP-binding protein RhoB (Homo sapiens) (UniProt P62745); test: Inhibition of RhoB transactivation in human HeLa cells by luciferase reporter assay; assay type: cell-based
# Sequence of Rho-related GTP-binding protein RhoB (Homo sapiens) (P62745 whole entry): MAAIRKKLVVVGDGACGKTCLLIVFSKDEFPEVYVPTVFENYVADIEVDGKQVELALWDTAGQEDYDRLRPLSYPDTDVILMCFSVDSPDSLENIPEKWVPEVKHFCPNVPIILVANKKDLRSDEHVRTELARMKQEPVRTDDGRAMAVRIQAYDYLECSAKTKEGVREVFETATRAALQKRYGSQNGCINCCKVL
# ACHN [10] = test: Antiproliferative activity against human ACHN cells at 3 uM by SRB assay; assay type: functional
# MDA-MB-231 [11] = test: Antiproliferative activity against human MDA-MB-231 cells at 10 uM by SRB assay; assay type: functional
# PC-3 [12] = test: Antiproliferative activity against human PC3 cells at 10 uM by SRB assay; assay type: functional
# [13] = biological target: Rho-related GTP-binding protein RhoB (Homo sapiens) (UniProt P62745); test: Transactivation of RhoB in human HeLa cells by luciferase reporter assay; assay type: cell-based
# NCI-H23 [14] = test: Antiproliferative activity against human NCI-H23 cells at 1 uM by SRB assay; assay type: functional
# NCI-H23 [15] = test: Antiproliferative activity against human NCI-H23 cells at 0.1 uM by SRB assay; assay type: functional
# NUGC-3 [16] = test: Antiproliferative activity against human NUGC3 cells at 0.1 uM by SRB assay; assay type: functional
# PC-3 [17] = test: Antiproliferative activity against human PC3 cells at 1 uM by SRB assay; assay type: functional
# HCT-15 [18] = test: Antiproliferative activity against human HCT15 cells at 0.3 uM by SRB assay; assay type: functional
# NUGC-3 [19] = test: Antiproliferative activity against human NUGC3 cells at 1 uM by SRB assay; assay type: functional
# NUGC-3 [20] = test: Antiproliferative activity against human NUGC3 cells at 10 uM by SRB assay; assay type: functional
# MDA-MB-231 [21] = test: Antiproliferative activity against human MDA-MB-231 cells at 0.1 uM by SRB assay; assay type: functional
# MDA-MB-231 [22] = test: Antiproliferative activity against human MDA-MB-231 cells by SRB assay; assay type: functional
# NUGC-3 [23] = test: Antiproliferative activity against human NUGC3 cells by SRB assay; assay type: functional
# NCI-H23 [24] = test: Antiproliferative activity against human NCI-H23 cells by SRB assay; assay type: functional
# PC-3 [25] = test: Antiproliferative activity against human PC3 cells at 0.3 uM by SRB assay; assay type: functional
# HCT-15 [26] = test: Antiproliferative activity against human HCT15 cells at 3 uM by SRB assay; assay type: functional
# HCT-15 [27] = test: Antiproliferative activity against human HCT15 cells at 1 uM by SRB assay; assay type: functional
# ACHN [28] = test: Antiproliferative activity against human ACHN cells at 0.3 uM by SRB assay; assay type: functional
# HCT-15 [29] = test: Antiproliferative activity against human HCT15 cells at 10 uM by SRB assay; assay type: functional
# ACHN [30] = test: Antiproliferative activity against human ACHN cells at 0.1 uM by SRB assay; assay type: functional
# ACHN [31] = test: Antiproliferative activity against human ACHN cells at 10 uM by SRB assay; assay type: functional
# MDA-MB-231 [32] = test: Antiproliferative activity against human MDA-MB-231 cells at 0.3 uM by SRB assay; assay type: functional
# PC-3 [33] = test: Antiproliferative activity against human PC3 cells by SRB assay; assay type: functional
# PC-3 [34] = test: Antiproliferative activity against human PC3 cells at 0.1 uM by SRB assay; assay type: functional
# NCI-H23 [35] = test: Antiproliferative activity against human NCI-H23 cells at 3 uM by SRB assay; assay type: functional
# PC-3 [36] = test: Antiproliferative activity against human PC3 cells at 3 uM by SRB assay; assay type: functional
# NCI-H23 [37] = test: Antiproliferative activity against human NCI-H23 cells at 0.3 uM by SRB assay; assay type: functional
# ACHN [38] = test: Antiproliferative activity against human ACHN cells by SRB assay; assay type: functional
structure (smiles),measurement,setting,value
CCCCCCCCCCCCCCCCCC(=O)NCCC[N+](C)(C)C,"growth, % of control at 0.3 µM",NUGC-3 [1],93%
same,"growth, % of control at 0.1 µM",HCT-15 [2],90.7%
same,"growth, % of control at 1 µM",MDA-MB-231 [3],92.5%
same,"growth, % of control at 3 µM",NUGC-3 [4],37.7%
same,"growth, % of control at 1 µM",ACHN [5],85%
same,GI50,HCT-15 [6],790 nM
same,"growth, % of control at 3 µM",MDA-MB-231 [7],59.9%
same,"growth, % of control at 10 µM",NCI-H23 [8],5.43%
same,inhibition,[9],Active
same,"growth, % of control at 3 µM",ACHN [10],64.3%
same,"growth, % of control at 10 µM",MDA-MB-231 [11],29.9%
same,"growth, % of control at 10 µM",PC-3 [12],-14.7%
same,Activity,[13],Active
same,"growth, % of control at 1 µM",NCI-H23 [14],90.7%
same,"growth, % of control at 0.1 µM",NCI-H23 [15],102%
same,"growth, % of control at 0.1 µM",NUGC-3 [16],98.4%
same,"growth, % of control at 1 µM",PC-3 [17],51.3%
same,"growth, % of control at 0.3 µM",HCT-15 [18],86.5%
same,"growth, % of control at 1 µM",NUGC-3 [19],63.8%
same,"growth, % of control at 10 µM",NUGC-3 [20],15.3%
same,"growth, % of control at 0.1 µM",MDA-MB-231 [21],96%
same,GI50,MDA-MB-231 [22],2410 nM
same,GI50,NUGC-3 [23],970 nM
same,GI50,NCI-H23 [24],1680 nM
same,"growth, % of control at 0.3 µM",PC-3 [25],97.7%
same,"growth, % of control at 3 µM",HCT-15 [26],30.8%
same,"growth, % of control at 1 µM",HCT-15 [27],64.3%
same,"growth, % of control at 0.3 µM",ACHN [28],101%
same,"growth, % of control at 10 µM",HCT-15 [29],11.2%
same,"growth, % of control at 0.1 µM",ACHN [30],99.2%
same,"growth, % of control at 10 µM",ACHN [31],42.8%
same,"growth, % of control at 0.3 µM",MDA-MB-231 [32],98.1%
same,GI50,PC-3 [33],520 nM
same,"growth, % of control at 0.1 µM",PC-3 [34],97.5%
same,"growth, % of control at 3 µM",NCI-H23 [35],56.5%
same,"growth, % of control at 3 µM",PC-3 [36],3.63%
same,"growth, % of control at 0.3 µM",NCI-H23 [37],103%
same,GI50,ACHN [38],3400 nM
